# Measured values: patent publication US7118747B2, “AT4 receptor ligands as angiogenic, anti-angiogenic, and anti-tumor agents” (Pacific Northwest Biotechnology Inc., priority 2003, dated 2006)
# What was measured:
# [1] = tested on: Human umbilical vein endothelial cells (HUVEC); assay: HUVEC growth, MTT assay; assay type: cell-based
# Method: These initial observations were extended to human endothelial cells (FIG. 1A) where application of the high affinity agonist, Nle^1-Ang IV (Sardinia et al., 1994; Wright et al., 1999), produces a dose-dependent increase in growth. Human umbilical vein endothelial cells (HUVEC) were grown in EGM (Clonetics) and 10% calf serum for four days in the absence (control) or presence of 10^−8 M, 10^−10 M, or 10^−12 M Nle^1-Ang IV. Cell proliferation was estimated by monitoring mitochondrial activity with the redox-sensitive substrate 3-[4,5-Dimethylthiazol-2-yl]-2,5-diphenyltetrazolium bromide (MTT) (Carmicheal et al., 1987).
# (§1) Most relevant for anti-angiogenic cancer treatment is the ability of AT4 antagonists to inhibit endothelial cell growth in culture. Attenuated growth has been observed with both CVECs and with HUVECs (FIG. 1B). After four days of treatment with 10^−10 M Nle^1, Leu^3-Ψ(CH2—NH2)^3-4-Ang IV (NORLEUAL), a potent AT4 receptor antagonist (Kramar et al., 2001), growth of CVECs was reduced to 25% of control (Mean±SEM; n=8; p<.001). […] Cell proliferation was again estimated using the MTT assay.
# [2] = tested on: bovine coronary venular endothelial cells (CVEC); assay: CVEC growth, MTT assay; assay type: cell-based; details: 10^-10 M, four days of treatment
# From the text: as §1
# [3] = tested on: Human dermal fibroblasts; assay: Net deposition of extracellular matrix protein, anti-fibronectin stain; assay type: cell-based; details: 10^-12 M, 3 days
# Method: (§2) Human dermal fibroblasts and C6 glioma cells (astrocyte tumor) were treated with 10^−12 M NORLEUAL for 3 days. Cells were stripped with 0.25 % Triton X-100 for 10 minutes and stained with either Coomassie blue (gliomas) or anti-fibronectin (fibroblasts). Stained dots remaining after treatment are nuclei. Although the mechanism responsible for the lose of ECM proteins has yet to be fully elucidated, a contributing factor could be AT4 receptor-dependent alterations in the expression of matrix metalloproteinases. Application of AT4 receptor ligands to rabbit cardiac fibroblasts initiated marked changes in the expression of various matrix metalloproteinases (MMPs) (FIG. 3). Conditioned media from cardiac fibroblasts treated with various AT4 receptor ligands for 12 hours was loaded and run on a 10% SDS-polyacrylamide gel containing the 1% gelatin, an MMP substrate. After renaturation and activation of MMPs, the gel was incubated at 37° C. for 24 hours to allow for the degradation of gelatin at sites within the gel where MMPs reside. These sites are seen as unstained lytic bands on a background of stained and undegraded gelatin. Lane one is control media from cells with no exposure to AT4 receptor ligands. Lanes 2-4 contained media from cells treated with Nle^1-Ang IV, a putative AT4 receptor agonist, at concentrations of 1 nM, 10 nM, and 100 nM respectively. […]
# [4] = tested on: C6 glioma cells; assay: Net deposition of extracellular matrix protein, Coomassie blue stain; assay type: cell-based; details: 10^-12 M, 3 days
# Method: as §2
# [5] = tested on: HUVECs; assay: as above; assay type: cell-based, human; details: 10^-12 M, 3 days
# From the text: HUVECs and the mouse breast cancer cell line, +SA-WAZ-2T was exposed to the AT4 receptor antagonist NORLEUAL at 10^−12 M for 3 days. Cells were then stripped with 0.25% Triton X-100 and stained with Coomassie blue to visualize total ECM protein. Without an ECM platform endothelial cells fail to migrate and are unable to stabilize new blood vessels.
# [6] = tested on: Rat aortic rings; assay: Ex vivo rat aortic ring angiogenesis assay; details: 3 days in basal medium with varying concentrations; p<0.02 for 10^-6 M
# Method: (§3) This prediction has been borne out in studies examining the anti-angiogenic activity of the AT4 receptor antagonist, NORLEUAL, using an ex vivo aortic ring model (FIG. 5) and an in vivo disc angiogenesis assay system in rats (FIG. 6). The data shown in FIG. 5 illustrate the dramatic ability of an AT4 receptor antagonist to inhibit neovascular growth. Rat aortic rings were incubated for 24 hours in a growth factor rich medium (EGM-2) followed by 3 days of incubation in a basal medium (control) or basal media with varying concentrations of NORLEUAL. The data shown in FIG. 5A compare an untreated control ring and a ring treated with 10^−6 M NORLEUAL. […] Disks (1 cm diameter) composed of surgical sponge sandwiched between impermeable membranes were implanted subcutaneously in the backs of rats. In the center of the disks was a pellet containing the test material. The disks were removed 10 days after implantation, paraffin sectioned, stained with Coomassie blue, and analyzed by quantitative image analysis methods to determine the vascularized area. […] Data from discs containing no drug (control), an AT4 receptor agonist (Cpnd 1), or an AT4 receptor antagonist (Cpnds 2-4). Cmpd 2 is NORLEUAL. Each disc contained 10 micrograms of drug. Data is presented as the percent of the total disc area that is vascularized (Mean±SEM; n=8).
# [7] = tested on: +SA-WAZ-2T mouse breast cancer cells; assay: Primary mammary tumor growth and vascularization with slow-release pellet; assay type: in vivo; details: mice
# Method: To test this prediction mice were implanted with […]+SA-WAZ-2T mouse breast cancer cells (a highly aggressive and metastatic cell line) (Danielson et al., 1980) directly into the mammary gland in the presence or absence of a slow-release pellet containing the AT4 antagonist, NORLEUAL at various concentrations (FIG. 7; FIG. 14[color version]). Mouse mammary glands were injected with 5×10^5 cells. […] Tumors were removed and weighed at various time points. Data shown represents one of three experiments that yielded identical results. […] Arrows indicate large blood vessels in the control tumor. […] The highest dose examined inhibited growth more than 97%. Equally dramatic as the reduced size of the tumors was their lack of vascularization. […] Tumors were harvested after 5 weeks of drug application and stained for Factor VIII. […] The quantitative data shown in FIG. 8B indicates the number of visible blood vessels in an average high power field. Data are mean+/−SEM, n=6.
# [8] = tested on: murine breast cancer cells; assay: Lung metastasis after tail vein injection of breast cancer cells; assay type: in vivo, mice; details: Elvax pellets with 0.3 mg bilaterally
# From the text: In addition to inhibiting primary tumor growth, AT4 receptor antagonists are also effective at preventing the growth of lung metastases (as assessed by total lung weight and the presence of metastatic tumor nodules) in mice that have had breast cancer cells injected via the tail vein (FIG. 9). In these experiments the drug was applied using Elvax slow-release pellets that were implanted into the gluteus maximus muscle coincident with the injection of tumor cells into the tail vein. Mice were injected with 5×10^5 murine breast cancer cells and bilaterally implanted with Elvax pellets containing 0.3 mg of NORLEUAL. Lungs were harvested 7 weeks after tumor cell injection and weighed. […] In order to compare just the added lung weight due to tumor infiltration, tumor burden was calculated by subtracting the mean lung weight of wild type untreated controls from the weight of lungs from experimental groups. The mean lung weight of the untreated tumor controls was normalized to 100. Typically, the lung weights of cancer injected, non-treated mice were 50% greater than non-injected controls and treated mice. Spleen weight, another indication of tumor burden, was also normal in treated mice.
# [9] = tested on: MDA-MB-231 human breast cancer cells; assay: MDA-MB-231 growth, MTT assay; assay type: cell-based; details: 10^-12 M, four days in culture
# From the text: Because of the marked effectiveness of AT4 receptor antagonists to inhibit the growth and metastasis of breast cancer in vivo, and the generally disappointing activity of anti-angiogenic molecules seen in clinical trials (Kerbel and Folkman, 2002), we decided to ascertain whether these drugs might have a direct effect on tumor cells as well as inhibiting angiogenesis. The growth of MDA-MB-23 1 cells, an aggressive estrogen-independent human cell line was inhibited by all concentrations that were examined (FIG. 10). Growth was assessed using the mitochondrial activity dye MTT after four days in culture. Growth was reduced to less than 25% of control by a concentration of NORLEUAL of 10^−12 M (Mean+/−SEM; n=6). […] The unusual reversed dose-response curve seen with the MDA-MB-231 cells may represent differential effects on multiple receptor subtypes with varied ligand affinities. […] The ability of AT4 receptor antagonists to inhibit both the angiogenic process as well as the proliferation of human cancer cells makes them unique among anti-cancer agents and provides a plausible explanation for their dramatic ability to inhibit tumor growth and metastasis.
# [10] = tested on: angiogenesis into subcutaneously implanted disc; assay: In vivo disc angiogenesis assay; details: rat, 10 micrograms of drug per disc, 10 days after implantation
# Method: as §3
# [11] = tested on: bovine coronary venular endothelial cells (CVEC); details: cultured CVEC (Hall et al., 1995); cited from earlier work
substance,measurement,setting,value
"Nle^1, Leu^3-Ψ(CH2—NH2)^3-4-Ang IV [NORLEUAL]","growth of HUVECs, largest decrease",[1]; 10^-6 M,39 % control
same,growth of CVECs,[2],25 % of control
same,deposited ECM,[3],near total loss of deposited ECM
same,deposited ECM,[4],near total loss of deposited ECM
same,density of endothelial-associated ECM,[5],dramatic reduction in the density of the endothelial-associated ECM
same,vessel growth in aortic rings,[6],inhibition of vessel growth
same,inhibition of primary tumor growth,"[7]; highest dose examined, Elvax pellet in mammary gland",more than 97%
same,"tumor vascularization, Factor VIII stained sections",[7]; tumors harvested after 5 weeks of drug application,nearly avascular
same,lung metastases,"[8]; mice, lungs harvested at 7 weeks",no gross or microscopic indication of metastases
same,"spleen weight, indication of tumor burden",[8]; treated mice,normal
same,growth of MDA-MB-231 cells,[9],less than 25 % of control
Nle^1-Ang IV,maximum observed increase in endothelial cell proliferation,"[1]; HUVEC, four days, 10^-8, 10^-10 or 10^-12 M",330 % of control levels
same,"angiogenesis, percent of total disc area vascularized",[10],trend toward enhancing angiogenesis
same,rate of 3H-thymidine incorporation,[11],augment the rate of ^3H-thymidine incorporation
